Test results reported in patent US10196403B2, “Compounds and compositions and uses thereof” (Sunovion Pharmaceuticals Inc., priority 2016, dated 2019).

Test system: mice
Experiment: Neuropharmacological Assay (SmartCube)
Format: in vivo
Settings: for minimal effective dose: Mus musculus, read-out: POTENCY (minimal effective dose, MED); for AD: ADHD (SmartCube probability) / AG: analgesic (SmartCube probability) / AX: anxiolytic (SmartCube probability) / CE: cognitive enhancer (SmartCube probability) / DP: anti-depressant (SmartCube probability) / MS: mood stabilizer (SmartCube probability) / PS: anti-psychotic (SmartCube probability) / SD: sedative hypnotic (SmartCube probability) / UN: uncharacterized CNS activity (SmartCube probability): mice, i.p. 15 min before test, most efficacious dose(s) of 3 doses
Procedure, shortened: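 Compounds in NMP/PEG/propylene glycol given i.p. 15 min before automated video-based behavioral testing, at 3 doses; behavioral signature compared with a reference-compound database to give probability per drug class, reported at most efficacious dose. MED = dose (mpk) giving ≥50% total activity; doses typically 0.3–30 mpk.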

[1] = MED = dose having 50% or more total activity in SmartCube

Row | SMILES | minimal effective dose [1] [mg/kg] | AD: ADHD (SmartCube probability) | AG: analgesic (SmartCube probability) | AX: anxiolytic (SmartCube probability) | CE: cognitive enhancer (SmartCube probability) | DP: anti-depressant (SmartCube probability) | MS: mood stabilizer (SmartCube probability) | PS: anti-psychotic (SmartCube probability) | SD: sedative hypnotic (SmartCube probability) | UN: uncharacterized CNS activity (SmartCube probability) | POTENCY (minimal effective dose, MED) [1]
1 | Cc1cccc2c1CCO[C@@H]2CN [Example 72, (S)-(5-methylisochroman-1-yl)methanamine] | 3 to 10 | + (LOQ≤ + <5%) | + (LOQ≤ + <5%) | ++ (5%≤ ++ <25%) | + (LOQ≤ + <5%) | ++ (5%≤ ++ <25%) | + (LOQ≤ + <5%) | + (LOQ≤ + <5%) | + (LOQ≤ + <5%) | +++ (25%≤ +++ <50%) | 
2 | CNC[C@H]1OCCc2ccc3c(c21)OC(F)(F)O3 [Example 102, (S)-1-(2,2-difluoro-6,9-dihydro-7H-[1,3]dioxolo[4,5-h]isochromen-9-yl)-N-methylmethanamine] | 10 to 30 | + (LOQ≤ + <5%) | ++ (5%≤ ++ <25%) | ++ (5%≤ ++ <25%) | + (LOQ≤ + <5%) | ++ (5%≤ ++ <25%) | + (LOQ≤ + <5%) | + (LOQ≤ + <5%) | + (LOQ≤ + <5%) | +++ (25%≤ +++ <50%) | 
3 | CNC(C)C1OCCc2ccc3c(c21)OCO3 (stereo not drawn) [Example 57] |  | + (LOQ≤ + <5%) | ++ (5%≤ ++ <25%) | ++ (5%≤ ++ <25%) | ++ (5%≤ ++ <25%) | + (LOQ≤ + <5%) | + (LOQ≤ + <5%) | + (LOQ≤ + <5%) | + (LOQ≤ + <5%) | +++ (25%≤ +++ <50%) | D (>30 mpk)
4 | CNC[C@H]1OCCc2cccc(C)c21 [Example 40, (S)-N-methyl-1-(8-methylisochroman-1-yl)methanamine] | < 3 | + (LOQ≤ + <5%) | + (LOQ≤ + <5%) | +++ (25%≤ +++ <50%) | + (LOQ≤ + <5%) | ++ (5%≤ ++ <25%) | + (LOQ≤ + <5%) | ++ (5%≤ ++ <25%) | ++ (5%≤ ++ <25%) | +++ (25%≤ +++ <50%) | 
5 | CNC[C@@H]1OCCc2c1cccc2C(F)(F)F [Example 79] | < 3 | ++ (5%≤ ++ <25%) | + (LOQ≤ + <5%) | + (LOQ≤ + <5%) | + (LOQ≤ + <5%) | ++++ (50%≤ ++++) | + (LOQ≤ + <5%) | + (LOQ≤ + <5%) | ++ (5%≤ ++ <25%) | + (LOQ≤ + <5%) | 
6 | CNC[C@H]1OC[C@@H](O)c2ccc3c(c21)OCO3 (single isomer, unassigned) [Example 113] | > 30 | + (LOQ≤ + <5%) | + (LOQ≤ + <5%) | ++ (5%≤ ++ <25%) | + (LOQ≤ + <5%) | + (LOQ≤ + <5%) | + (LOQ≤ + <5%) | + (LOQ≤ + <5%) | + (LOQ≤ + <5%) | + (LOQ≤ + <5%) | 
7 | CNC[C@@H]1OCc2cccc(F)c21 [Example 69, (R)-1-(7-fluoro-1,3-dihydroisobenzofuran-1-yl)-N-methylmethanamine] | < 3 | ++ (5%≤ ++ <25%) | +++ (25%≤ +++ <50%) | ++ (5%≤ ++ <25%) | + (LOQ≤ + <5%) | ++ (5%≤ ++ <25%) | ++ (5%≤ ++ <25%) | ++ (5%≤ ++ <25%) | + (LOQ≤ + <5%) | ++++ (50%≤ ++++) | 
8 | CNC[C@@H]1OCC(F)(F)c2ccccc21 [Example 28, (R)-1-(4,4-difluoroisochroman-1-yl)-N-methylmethanamine] | < 3 | + (LOQ≤ + <5%) | ++ (5%≤ ++ <25%) | ++ (5%≤ ++ <25%) | ++ (5%≤ ++ <25%) | ++ (5%≤ ++ <25%) | + (LOQ≤ + <5%) | +++ (25%≤ +++ <50%) | ++ (5%≤ ++ <25%) | +++ (25%≤ +++ <50%) | 
9 | CNC[C@@H]1OCCCc2cccc(F)c21 [Example 61, (R)-1-(9-fluoro-1,3,4,5-tetrahydrobenzo[c]oxepin-1-yl)-N-methylmethanamine] | 3 to 10 | + (LOQ≤ + <5%) | + (LOQ≤ + <5%) | ++ (5%≤ ++ <25%) | + (LOQ≤ + <5%) | + (LOQ≤ + <5%) | + (LOQ≤ + <5%) | ++++ (50%≤ ++++) | + (LOQ≤ + <5%) | +++ (25%≤ +++ <50%) | 
